Data reported in paper PMC9606102, “[^89Zr]Zr-PSMA-617 PET/CT in biochemical recurrence of prostate cancer: first clinical experience from a pilot study including biodistribution and dose estimates” (European Journal of Nuclear Medicine and Molecular Imaging, 2022).

Tested on: prostate cancer lesions
Assay: [^89Zr]Zr-PSMA-617 PET/CT tumor lesion detection and uptake in biochemical recurrence
Format: in vivo, human (patients)
Method: Three patients had undetermined findings on [^68Ga]Ga-PSMA-11 PET/CT with no definite assignment to pathological or physiological uptake, e.g., faintly accumulating or unusually located tracer uptake. The time interval between both, [^89Zr]Zr-PSMA-617 and [^68Ga]Ga-PSMA-11 PET/CT, was 31 ± 18 days (range 5–49 days), with no treatment performed in between. Prostate-specific antigen (PSA) serum level at time of imaging ranged from 0.43 to 1.92 ng/ml. All patients were initially treated with radical prostatectomy (RP). Initial Gleason score ranged from 7a to 9. Four patients underwent salvage treatments such as androgen-deprivation therapy (ADT), lymphadenectomy (LA) or radiation therapy (RT). Detailed patient characteristics including age, Gleason score, primary therapy, salvage therapies, time from initial diagnosis (ID) of prostate cancer, PSA and PSA doubling time (DT) are presented in Table 1. [^89Zr]Zr-PSMA-617 PET/CT imaging was performed on a compassionate use basis under the German Pharmaceutical Act §13 (2b). The medical indication for the examination and the labeling of the tracer were under the direct responsibility of the applying physician. Patients gave their written consent after being thoroughly informed about the general risks of both radiation exposure and application of a novel PET tracer including possible adverse effects of, e.g., therapeutic PSMA tracers. Furthermore, all patients agreed to the publication of the resulting data in accordance with the Declaration of Helsinki.
Each patient underwent PET/CT imaging scans at 4 time points: 1 h, 24 h, 48 h, and 72 h post intravenous injection (p.i.) of 111 ± 11 MBq (mean ± standard deviation, range 97–129 MBq) [^89Zr]Zr-PSMA-617. All PET/CT imaging was performed on a Biograph mCT 40 scanner (Siemens Medical Solutions, Knoxville, TN, USA) comprising whole-body PET/CT scans extending from vertex to mid-femur in 3D mode. PET acquisition time duration was 4 min per bed position on the initial day of injection and extended up to 10 min on the last day. CT data were acquired in low-dose technique using an X-ray tube voltage of […] and a modulation of the tube current (CARE Dose4D, Siemens Erlangen; maximal tube current 30 mA) followed by reconstruction with a soft tissue reconstruction kernel (B31f) to a slice thickness of 5 mm (increment 2–4 mm). PET emission data was corrected for decay, randoms, and scatter. PET image reconstruction was performed applying an iterative 3-dimensional ordered-subset expectation maximization (OSEM) algorithm (3 iterations; 24 subsets) with gaussian filtering to a transaxial resolution of 5 mm at full width half maximum (FWHM). The matrix and the pixel size were 200 × 200 and 3.0 mm, respectively. Attenuation correction was performed using the low-dose CT data.
Three physicians with long-time experience in PSMA-targeted PET/CT (S.E., F.K., and F.R.) visually identified suspicious lesions taking into account all four imaging time points (1 h, 24 h, 48 h, and 72 h p.i.).

[1] = of the 11 lesions not visible at 1 h p.i.

O=C([O-])CN1CCN(CC(=O)[O-])CCN(CC(=O)NCC2CCC(C(=O)NC(Cc3ccc4ccccc4c3)C(=O)NCCCCC(NC(=O)NC(CCC(=O)O)C(=O)O)C(=O)O)CC2)CCN(CC(=O)[O-])CC1.[89Zr+4] (stereo not shown) [[^89Zr]Zr-PSMA-617]
Patients whose undetermined [^68Ga]Ga-PSMA-11 findings were confirmed (3 patients with undetermined findings in [^68Ga]Ga-PSMA-11 PET/CT): 2 of 3
Detectability of tumor lesions at late time points (48 h p.i. and 72 h p.i.): All tumor lesions were detectable
Findings on [^89Zr]Zr-PSMA-617 PET/CT (Pt. no 1, PSA 1.92 ng/ml): Local recurrence
Findings on [^89Zr]Zr-PSMA-617 PET/CT (Pt. no 2, PSA 1.75 ng/ml): 3 × LNM (no right iliac LNM)
Findings on [^89Zr]Zr-PSMA-617 PET/CT (Pt. no 3, PSA 0.66 ng/ml): No suspicious findings
Findings on [^89Zr]Zr-PSMA-617 PET/CT (Pt. no 4, PSA 1.77 ng/ml): Peritoneal metastasis + 4 × LNM
Findings on [^89Zr]Zr-PSMA-617 PET/CT (Pt. no 5, PSA 0.63 ng/ml): 1 × LNM
Findings on [^89Zr]Zr-PSMA-617 PET/CT (Pt. no 6, PSA 0.43 ng/ml): Local recurrence (in seminal vesicle bed)
Findings on [^89Zr]Zr-PSMA-617 PET/CT (Pt. no 7, PSA 0.68 ng/ml): Local recurrence + 2 × LNM
Total number of lesions suggestive for prostate cancer (all 7 patients, range 1–5 per patient): 14 lesions
Tumor lesions identified at 1 h p.i. (also visible in [^68Ga]Ga-PSMA-11 PET/CT) (in 3 patients): Three
Patients with at least one prostate cancer lesion detected (of 7 patients with negative or undetermined [^68Ga]Ga-PSMA-11 PET/CT): 6 patients
Peritoneal metastases among identified lesions (of n = 14 lesions): 1 lesions
Tumor lesions not visible at 1 h p.i. but delineated at later time points (of n = 14 lesions): 11 lesions
Local recurrences among identified lesions (of n = 14 lesions, in 3 patients): 3 lesions
Lymph node metastases among identified lesions (of n = 14 lesions, in 4 patients): 10 lesions
Tumor lesions first visible at 24 h p.i. [1]: 9 lesions
Tumor lesions first visible at 48 h p.i. [1]: 2 lesions
SUVmax of tumor lesion (patient no. 1, focal uptake in the prostate bed (local recurrence), 48 h p.i.): 3.68
SUVmax of tumor lesion (patient no. 4, peritoneal lesion (peritoneal metastasis), 48 h p.i.): 2.87
SUVmax of tumor lesion (patient no. 6, local recurrence in left seminal vesicle bed, 1 h p.i.): 7.04
SUVmax of tumor lesion (patient no. 6, local recurrence in left seminal vesicle bed, 24 h p.i.): 21.27
SUVmax of tumor lesion (patient no. 6, local recurrence in left seminal vesicle bed, 48 h p.i.): 21.09
SUVmax of tumor lesion (patient no. 6, local recurrence in left seminal vesicle bed, 72 h p.i.): 19.19
SUVmax of tumor lesion (patient no. 7, pelvic lymph node metastasis, 48 h p.i.): 8.06
